Test results taken from patent US11078192B2, “Aromatic acetylene or aromatic ethylene compound, intermediate, preparation method, pharmaceutical composition and use thereof” (GUANGZHOU MAXINOVEL PHARMACEUTICALS CO., LTD., priority 2016, dated 2021).

Molecular target: PD-1/PD-L1 (Homo sapiens (Human), UniProt Q9NZQ7)
Assay: Homogeneous Time-Resolved Fluorescence (HTRF) binding assay
Settings: CisBio kit #64CUS000C-1, read-out: IC50 of compounds binding to PD-1/PD-L1
Protocol: Homogeneous Time-Resolved Fluorescence (HTRF) binding assay was used to determine the binding activity of the compound of the present invention to PD-1/PD-L1.
The purchased kit (CisBio, #64CUS000C-1) contained reagents required for assays such as PD-1, PD-L1, anti-tag1-Eu, Anti-tag2-XL665, Dilute Buffer, and Detection Buffer.
1. The compound was formulated to 10 concentrations with a 3-fold gradient with 100% DMSO.
2. The solution of the compound in DMSO was added to Dilute Buffer, mixed thoroughly, then transferred to a 96-well plate.
3. PD-L1 was diluted with Dilute Buffer, then added to the above 96-well plate.
4. PD-1 was diluted with Dilute Buffer and added to the above 96-well plate, which was then incubated at room temperature for 30 minutes.
5. A portion of anti-tag1-Eu and a portion of anti-tag2-XL665 were added to Detection Buffer, mixed thoroughly and transferred to the above 96-well plate.
6. The mixture in the above 96-well plate was incubated at room temperature for 1 to 24 hours.
7. HTRF values were read with Envision.

Sequence of PD-1/PD-L1 (Q9NZQ7 19-238): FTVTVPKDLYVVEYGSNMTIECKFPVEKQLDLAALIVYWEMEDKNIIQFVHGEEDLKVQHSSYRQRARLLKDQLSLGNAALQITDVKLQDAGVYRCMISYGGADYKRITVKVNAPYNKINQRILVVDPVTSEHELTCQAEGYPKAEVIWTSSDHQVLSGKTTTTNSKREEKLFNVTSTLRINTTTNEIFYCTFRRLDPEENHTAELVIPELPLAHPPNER

IC50: 2000 nM
Compound: COc1cc(/C=C/c2cncc(-c3ccccc3)c2C)cc(OC)c1CNC(C)(CO)C(=O)O (stereo not shown) [Compound 65, (E)-2-(2,6-Dimethoxy-4-(2-(4-methyl-5-phenylpyridin-3-yl)vinyl)benzylamino)-3-hydroxy-2-methylpropionic Acid]
